Results from US7264795B2, “Sunscreen composition” (Merck Patent Gesellschaft, priority 2001, dated 2007).

Tests used:
[1] = Differential stripping of the stratum corneum (tape stripping with UV/VIS spectroscopy); type: in vitro ADME, porcine
From the text: The goal of this study was to determine and compare the distribution of OMC in the stratum corneum of two different formulations as applied to porcine skin, which serves as a model for in vivo human skin applications. The method used has been established (Weigmann H-J, Lademann J, Meffert H, Schaefer H, Sterry W: Determination of the horny layer profile by tape stripping in combination with optical spectroscopy in the visible range as a prerequisite to quantify percutaneous absorption. Skin Pharmacol Appl Skin Physiol, 12:34-45 (1999)) and is described below. This method is based on conventional stripping procedures combined with UV/VIS spectroscopy to determine both the substance, to be analyzed, and, in parallel, the weight of the comeocytes. This since it is possible to obtain the complete stratum corneum with this stripping procedure, the strips thus can be shown as a horny layer profile.
Porcine ear skin is used due to its availability and well-known similarity to human skin. […] Two formulations are applied to an area of 20 cm^2 with a concentration of 2 mg/cm^2 (200 μg OMC/cm^2) and exposed for one hour. […] Afterwards, topical application and stripping was carried out using a standard procedure (The emulsion is applied with a syringe and evenly distributed with a gloved finger. After pressure application, all strips were removed from the marked area). The stripping is repeated as long as the spectral photometer has a transmission of 99.8% compared to the original tape strip as reference.
After evaluation of the amount of stratum corneum photometrically at 900 nm, the strips are extracted with methanol, centrifuged and decanted. Amounts of OMC concentrations are calculated from the ratio peak area of the OMC to an internal OMC calibration curve. The detection limit for OMC is found to be 1 μg/ml±5%. The experiments are carried out in duplicate.
Non-particulate substances lying in the furrows are distributed evenly due to the applied pressure—this releases the substances from the furrows, while particulate substances often remain. […]

[2] = Comparative release through an inert lipophilic membrane (Franz diffusion cell); type: in vitro ADME; conditions: after 6 hours, finite dose 5 mg/cm^2 (572 μg OMC/cell)
From the text: The goal of this study is to determine and compare the release of OMC from two different formulations through an inert lipophilic membrane which serves as a model (Jiang R, Benson H A E, Cross S E, Roberts M S. In vitro human epidermal and polyethylene membrane penetration and retention of sunscreen benzophenone-3 from a range of solvents. Pharm. Res., 15: 1863-1886 (1998)) for in vitro human skin applications. (Jiang R, Robert M S, Prankerd R J, Benson H A E. Percutaneous absorption of sunscreen agents from liquid paraffin: self-association of octyl salicylate and effects on skin flux. J. Pharm. Sci., 86: 791-796 (1997); Shah et al: In vitro release from corticosteorid ointments. J. Pham. Sci., 84(9): 1139-1140 (1995);).
Two formulations are prepared, one with free, the other with encapsulated OMC. Both contained the same amount of OMC (see Table 3).
Tuffryn® membranes (200 nm in pore size) are soaked for 30 minutes in isopropyl myristate and blotted dry with tissue paper prior to use. […]
Analysis is by HPLC, OMC concentrations are calculated from the ratio peak area of the OMC to an internal standard and calibration curve.

[3] = Epidermal uptake of UV filters by human epidermis (Franz diffusion cell); type: in vitro ADME
Description: The goal of this study is to determine and compare both the release of OMC from two different formulations through human epidermal membranes and the epidermal uptake of OMC.
Human female abdominal skin is used to heat-separate the epidermis from the dermis. The epidermal membranes thus obtained are mounted onto a Franz diffusion cell. The receptor cell contains PBS and 4% (w/v) bovine serum albumin, resulting in a pH of 7.4. The temperature is set to 35° C. Each of the two formulations is applied to 3 cells, non-occluded, with a finite dose concentration of 5 mg/cm^2 (572 μg OMC/cell). […] The duration of examination is 6 hours, 200 μl of the receptor phase is removed at specific points of time and analyzed by HPLC. To analyze the epidermal uptake, the remaining formulation is wiped from the surface of the epidermis with alcohol-soaked tissue and the skin is stripped once with adhesive tape, which is then discarded. A circular punch is used to remove a constant area of epidermis exposed to the formulations. After extraction, OMC concentrations are analyzed by HPLC.

## CCCCC(CC)COC(=O)C=Cc1ccc(OC)cc1 (centres unmarked) [Free OMC, octyl methoxycinnamate]
[1]; 10% OMC formulation, 2 mg/cm^2, exposed one hour, 100% SC = 20 μm
  Share of the stratum corneum (SC) down to which OMC is found: 75 % of the SC
[1]; 10% OMC formulation, 2 mg/cm^2, exposed one hour, horny layer about 20 μm
  Maximum depth in the SC where OMC can be detected: ≤ 15 μm
[1]; strip at 15 μm depth (75% of the SC)
  OMC amount in the deepest strip: 1 μg/cm^2
[2]
  OMC reaching the receptor cell as share of the applied amount: 12.5%
[2]; 8.8% OMC, n=3
  OMC reaching the receptor cell: 72 µg
[3]; 6 hours, finite dose 5 mg/cm^2 (572 μg OMC/cell), 8.8% OMC
  UV filter penetrating the epidermis into the receptor phase: no significant amount of UV filter penetrating the epidermis
[3]; after 6 hours of exposure, finite dose 5 mg/cm^2, 8.8% OMC
  Epidermal uptake of OMC per mg of epidermal tissue: 3.3 μg/mg tissue
[3]; heat-separated human epidermis, 6 hours
  Epidermal absorption compared to Eusolex UV-Pearls: 3 fold
